According to patent US8895717B2, “Delivery of siRNA by neutral lipid compositions” (The Board of Regents of the University of Texas System, priority 2005, dated 2014):
d = 2'-deoxy (DNA); r = 2'-OH (RNA)

Columns and labels:
SKOV3 cells = assay: Cytotoxicity assay (MTT), SKOV3; format: cell-based, human
Procedure: The medium was exchanged after 48 hours with increasing concentrations of docetaxel (obtained from Aventis Pharma, Bridgewater, N.J.) dissolved in ethanol (final concentration range, 0.1-10,000 nmol/L prepared in medium) or cisplatin (purchased from LKT Laboratories, Inc., St. Paul, Minn.) dissolved in water. After a 96-hour incubation, 50 μL of 0.15% 3-(4,5-dimethylthiazol-2-yl)-2,5-diphenyltetrazolium bromide was added to each well and incubated for 2 hours. The supernatant was removed, and cells were dissolved in 100 μL DMSO. The absorbance at 570 nm was recorded using a FALCON microplate reader (Becton Dickinson Labware, Bedford, Mass.), and cell survival expressed as a percent increase or decrease above control conditions, after subtracting blank A570 readings. The IC50 concentration was determined by finding the A570 reading midpoint between maximal and minimal readings and finding the chemotherapy concentration that intersects the growth curve at that A570 reading.

caspase-3 = assay: Caspase-3 activity in ovarian cancer cells (DEVD-AFC); format: cell-based, human; conditions: taxane-sensitive and taxane-resistant cell lines
Procedure: Ovarian cancer cells (1×10^6) in culture (six-well plates) were treated with or without docetaxel at the cell line specific IC50 or IC90 concentration for 24 hours. After washing with PBS, cells were lysed in 50 μL of cell lysis buffer provided. Caspase-3, caspase-8, and caspase-9 activities were measured with the appropriate apoptosis detection kit (BD Biosciences/Clontech, Palo Alto, Calif.), using substrate DEVD-AFC for caspase-3, IETD-AFC for caspase-8, and LEHD-AMC for caspase-9.

HeyA8 orthotopic model = assay: Angiogenesis (MVD), proliferation (PCNA), apoptosis (TUNEL), VEGF and MMP-9 in harvested tumors; format: in vivo, nude mice; conditions: for endothelial cell apoptosis: CD31 and TUNEL dual localization
Procedure: Expression of PCNA was determined by IHC analysis using paraffin-embedded tumors. Sections (8-μm thick) were deparaffinized in xylene, treated with a graded series of alcohol [100%, 95%, 80% ethanol/double distilled H2O (v/v)], and rehydrated in PBS (pH 7.5). Antigen retrieval was performed by microwave heating for 5 minutes in 0.1 M citrate buffer pH 6.0, followed by blocking of endogenous […] with 3% H2O2 in methanol for 5 min. After PBS wash ×2, slides were blocked with 5% normal horse serum and 1% normal goat serum in PBS for 15 min at room temperature, followed by incubation with primary antibody (anti-PCNA, PC-10, mouse IgG, Dako), in blocking solution overnight at 4° C. After two PBS washes, the appropriate secondary antibody conjugated to horseradish peroxidase, in blocking solution, was added for 1 hour at room temperature. HRP was detected with DAB (Phoenix Biotechnologies, Huntsville, Ala.) substrate for 5 minutes, washed, and counterstained with Gil No. 3 hematoxylin (Sigma) for 20 sec. IHC for CD31 was performed on freshly cut frozen tissue. […] The primary antibody used was anti-CD31 (PECAM-1, rat IgG, Pharmingen). Staining for PCNA and CD31 was conducted on tumors collected at the conclusion of 4 week therapy trials.
To quantify MVD, 10 random 0.159-mm^2 fields at ×100 final magnification were examined for each tumor (1 slide per mouse, 5 slides per group), and the number of microvessels per field were counted. A single microvessel was defined as a discrete cluster or single cell stained positive for CD31 (CD31), and the presence of a lumen was required for scoring as a microvessel. To quantify PCNA expression, the number of positive cells (DAB staining) was counted in 10 random 0.159-mm^2 fields at ×100 magnification. To quantify TUNEL positive cells, the number of green fluorescence positive cells was counted in 10 random 0.01-mm^2 fields at ×400 magnification.
Expression of PCNA was determined by IHC analysis using paraffin-embedded tumors. Sections (8-μm thick) were mounted on positively charged Superfrost slides (Fisher Scientific Co., Houston, Tex.) and dried overnight. Sections were deparaffinized in xylene, treated with a graded series of alcohol [100%, 95%, 80% ethanol/double distilled H2O (v/v)], and rehydrated in PBS (pH 7.5). Antigen was retrieved by placing the slides in water and then boiling them in a microwave on high power for 5 min. Expression of CD31 was determined using fresh frozen tissues that were cut into 4-μm thick sections and mounted on positively charged slides. The slides were stored at −80° C.; sections were fixed in cold acetone for 10 min. and then washed twice with PBS for 3 min each time. A positive reaction was visualized by incubating the slides with stable 3,3 diaminobenzidine for 10-20 min. The sections were rinsed with distilled water, counterstained with Gill's hematoxylin for 1 min and mounted with Universal mount (Research Genetics).
To determine potential mechanisms underlying the efficacy of anti-FAK based therapy, its effects on several biological endpoints were examined, including angiogenesis (MVD), proliferation (PCNA), and apoptosis (TUNEL). Due to growing evidence related to FAK and tumor angiogenesis (Kornberg et al., 2004; Mitra et al., 2005). The inventors evaluated vessel density (FIG. 14B) in the tumors harvested from the studies described above. […]

Substance | effect on sensitivity to docetaxel (SKOV3 cells; all ovarian cancer cell lines tested) | caspase-3 activity, siRNA alone (caspase-3) | endothelial cell apoptosis (HeyA8 orthotopic model) | fold greater docetaxel cytotoxicity after FAK down-regulation (SKOV3 cells; SKOV3, siRNA 48 hours before docetaxel, at 50% cytotoxicity) [fold] | mean MVD compared with empty liposomes (HeyA8 orthotopic model; CD31 staining) | VEGF and MMP-9 expression (HeyA8 orthotopic model; IHC) | PCNA expression compared to empty liposome or control siRNA (HeyA8 orthotopic model; mouse, in vivo)
control siRNA: sense r(UUUUCCGAACGUGUCACGU)dTT, antisense r(ACGUGACACGUUCGGAGAA)dTT, no homology with human mRNA; in vivo in DOPC (sense UUUUCCGAACGUGUCACGUTT; antisense ACGUGACACGUUCGGAGAATT; sugars from the 5' end r19 d2, backbone not given here) | did not affect sensitivity of ovarian cancer cells to docetaxel | did not potentiate the activity of caspase-3 | no apotosis seen in endothelial cells | – | – | – | –
FAK siRNA: sense r(CCACCUGGGCCAGUAUUAU)d(TT), antisense r(AUAAUACUGGCCCAGGUGG)d(TT); for in vivo delivery incorporated into DOPC (sense CCACCUGGGCCAGUAUUAUTT; antisense AUAAUACUGGCCCAGGUGGTT; sugars from the 5' end r19 d2, backbone not given here) | – | did not potentiate the activity of caspase-3 | significantly increased | ~5 | mean MVD was reduced | substantially reduced | Minimal reduction of PCNA expression
